The results in this text go back to paper PMC6383769 (Nature, 2019).

The structures appear in SMILES notation. pEC50, pKi: −log10 of the molar value. Where only a bound is given, the exact number is not on record here.

As a reminder, the pKi is −log10 of the Ki, conventionally taken in molar units. Low values mean a large Ki, high ones a small Ki. By pEC50 is commonly meant the negative decadic logarithm of the EC50, by convention in mol/L. High values mean a low EC50, low ones a high EC50.

The target of test [1] is T1, human D4 (D4.4 variant) (Homo sapiens, UniProt P21917).
T1 sequence (P21917 1-419): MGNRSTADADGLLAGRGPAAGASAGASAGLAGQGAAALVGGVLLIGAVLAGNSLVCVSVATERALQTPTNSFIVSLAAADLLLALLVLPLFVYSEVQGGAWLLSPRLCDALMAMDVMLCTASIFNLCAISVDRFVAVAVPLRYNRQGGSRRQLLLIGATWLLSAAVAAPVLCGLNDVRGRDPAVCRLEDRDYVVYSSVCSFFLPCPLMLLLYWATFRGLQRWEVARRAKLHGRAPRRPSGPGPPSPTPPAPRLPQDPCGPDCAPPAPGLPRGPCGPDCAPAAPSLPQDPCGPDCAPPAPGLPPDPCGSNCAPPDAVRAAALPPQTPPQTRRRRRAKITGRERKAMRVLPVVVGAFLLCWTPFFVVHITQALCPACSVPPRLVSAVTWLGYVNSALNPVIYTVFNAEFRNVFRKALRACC
Kind of test: biochemical. The class given is binding.

For test [2], the target named is human D2 (D2 long receptor) (Homo sapiens, UniProt P14416). The experiment in a line: biochemical. The class given is binding.
Sequence of human D2 (D2 long receptor) (P14416 whole entry): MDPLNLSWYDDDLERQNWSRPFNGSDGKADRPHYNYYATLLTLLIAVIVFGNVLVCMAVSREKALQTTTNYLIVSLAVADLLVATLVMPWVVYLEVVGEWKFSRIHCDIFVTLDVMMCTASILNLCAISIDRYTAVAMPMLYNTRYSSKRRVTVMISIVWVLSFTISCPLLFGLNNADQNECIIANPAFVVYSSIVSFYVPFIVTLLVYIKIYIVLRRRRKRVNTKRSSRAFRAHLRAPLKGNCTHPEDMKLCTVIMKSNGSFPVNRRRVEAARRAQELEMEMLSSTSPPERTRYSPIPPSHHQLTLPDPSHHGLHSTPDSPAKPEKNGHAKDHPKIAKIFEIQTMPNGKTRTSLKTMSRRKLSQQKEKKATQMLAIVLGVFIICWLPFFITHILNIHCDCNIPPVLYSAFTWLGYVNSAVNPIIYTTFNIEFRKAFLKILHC
A further test addresses human D3 (Homo sapiens, UniProt P35462). Kind of test: D3 radioligand binding assay.
The target of test [3] is T1, human D4 (D4.4 variant). Kind of test: cell-based.
For another test, the target named is T2, cloned human D4 (Homo sapiens, UniProt P21917).
T2 sequence (P21917 1-419): T1 sequence (P21917 1-419)
Kind of test: cell-based. The settings on record: Tango EC50, D4 β-arrestin.

For test [4], the target named is T3, human D4 (Homo sapiens, UniProt P21917).
T3 sequence (P21917 1-419): T1 sequence (P21917 1-419)
Kind of test: cell-based.

Test [5] has as its target T3, human D4. The experiment in a line: Arrestin BRET. The class given is cell-based. In general terms: Bioluminescence resonance energy transfer reports proximity on the nanometre scale.
A further test has as its system D4 dopamine receptor. The experiment in a line: Signaling bias, G protein versus β-arrestin, versus quinpirole. The class given is cell-based, human.

Sequence of human D3 (P35462 whole entry): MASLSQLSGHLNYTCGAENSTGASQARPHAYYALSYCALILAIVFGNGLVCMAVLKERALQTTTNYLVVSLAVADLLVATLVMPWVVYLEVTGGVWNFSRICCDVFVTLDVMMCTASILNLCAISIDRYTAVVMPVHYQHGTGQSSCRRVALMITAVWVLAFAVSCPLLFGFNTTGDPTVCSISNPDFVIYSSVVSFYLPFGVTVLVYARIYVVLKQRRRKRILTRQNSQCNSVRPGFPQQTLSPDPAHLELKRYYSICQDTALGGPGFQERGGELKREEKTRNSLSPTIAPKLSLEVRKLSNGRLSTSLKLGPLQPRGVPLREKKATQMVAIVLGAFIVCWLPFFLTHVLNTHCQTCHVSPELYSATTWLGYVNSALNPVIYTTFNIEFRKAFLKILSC

With `C[C@@H]1CCCN(C(C)(C)CNc2nc(C3CC3)ns2)C1` [ZINC92642352], the negative logarithm of the Ki (pKi) at human D4 (D4.4 variant) [1] is 6.09; in test [2] it was less than 5.00; at human D3, less than 5.00.
Consider `Cc1ccc(CNCCCn2cccn2)cc1Br` [ZINC127859549], for which the negative logarithm of the Ki (pKi) at human D4 (D4.4 variant) [1] was 6.59; in test [2], less than 5.00; at human D3 it was 5.45. Moreover, the negative-log EC50 (pEC50) at human D4 (D4.4 variant) [3] was 4.98.
With `O[C@]1(CNCc2cnn(-c3ccc(Br)cc3)c2)CCSC1` [ZINC176752603], the pKi at human D4 (D4.4 variant) [1] was 6.52; in test [2] it was less than 5.00; on human D3, less than 5.00.
As to `Cc1cccc(CCNCc2ccn(-c3ccccc3)n2)c1` [ZINC237938360], the negative-log Ki (pKi) on human D4 (D4.4 variant) [1] is 6.74; in test [2], 5.24; at human D3 it was 5.97.
In the same order, the values of `CC(C)N1C[C@H](C)[C@H](NC(=O)c2cccc3cc[nH]c23)C1` [ZINC247398558] are 6.68, less than 5.00 and less than 5.00.
Take `C[C@H]1CN(C2CC2)C[C@H]1NC(=O)c1cc2cc([N+](=O)[O-])ccc2s1` [ZINC268141382]: the negative logarithm of the Ki (pKi) at human D4 (D4.4 variant) [1] was 6.25; in test [2], less than 5.00; on human D3, less than 5.00. The molecule also gave a negative-log EC50 (pEC50) at human D4 (D4.4 variant) [3] of 5.00.
Turning to `C=Cn1cc(CNC[C@@H](CO)Cc2ccccc2Br)cn1` [ZINC278933042], the pKi at human D4 (D4.4 variant) [1] is 6.57; in test [2], less than 5.00; at human D3, less than 5.00. The values for the negative logarithm of the EC50 (pEC50) on human D4 (D4.4 variant) [3] and at cloned human D4 were 7.39 and 4.65, respectively.
For `OC[C@H](Cc1ccc(F)cc1)NCc1ccn(-c2ccccc2)n1` [ZINC358506216], the negative-log Ki (pKi) on human D4 (D4.4 variant) [1] was 6.60; in test [2] it was 5.23; at human D3, 5.18.
On the same counts, the results for `C#CCOc1ccccc1CN1CC[C@@]2(C1)C(=O)Nc1ccccc12` [ZINC375299581] are 6.74, less than 5.00 and less than 5.00.
Regarding `CCCC[C@H](CN)NC(=O)Nc1cnn(-c2ccc(C)cc2C)c1` [ZINC415558697], the negative logarithm of the Ki (pKi) on human D4 (D4.4 variant) [1] was 6.00; in test [2], 5.70; at human D3, 5.23.
Regarding `C[C@H](N[C@H](CO)Cc1ccccc1)c1cc2c(s1)CCC2` [ZINC437075156], the pKi was 6.72 at human D4 (D4.4 variant) [1], less than 5.00 in test [2] and less than 5.00 on human D3. Also, the pEC50 on human D4 (D4.4 variant) [3] is 4.98.
For the molecule `CCC(CC)[C@@H](O)CNCc1cnc(-c2ccccc2F)s1` [ZINC449156693], the negative-log Ki (pKi) is 6.12 on human D4 (D4.4 variant) [1], less than 5.00 in test [2] and less than 5.00 at human D3.
As for `C[C@H]1CN(C2CC2)C[C@H]1NC(=O)c1cc2cc(Br)ccc2o1` [ZINC467716766], the negative-log Ki (pKi) is 6.15 at human D4 (D4.4 variant) [1], less than 5.00 in test [2] and less than 5.00 on human D3. This molecule gave a negative-log EC50 (pEC50) on human D4 (D4.4 variant) [3] of 4.46.
For `CCC[C@H](C)[C@H](CO)NCCc1nc(-c2ccc(Cl)cc2)no1` [ZINC567992445], the pKi was 6.07 at human D4 (D4.4 variant) [1], less than 5.00 in test [2] and less than 5.00 on human D3. In addition, on human D4 (D4.4 variant) [3], the negative logarithm of the EC50 (pEC50) was 5.32.
Regarding `C=C(C)COCCNC[C@H](O)Cc1ccc(C(F)(F)F)cc1` [ZINC569686370], the pKi is 6.26 at human D4 (D4.4 variant) [1], less than 5.00 in test [2] and less than 5.00 at human D3. On human D4 (D4.4 variant) [3], this molecule showed a negative-log EC50 (pEC50) of 5.11.
Take `CC1(C)CCN(CC(=O)NC[C@@H]2CCC[C@H]2C2CC2)C1` [ZINC572302473]: the negative logarithm of the Ki (pKi) on human D4 (D4.4 variant) [1] is 6.04; in test [2], less than 5.00; on human D3, less than 5.00.
For `N#Cc1ccnc(SC[C@]2(O)CCN(Cc3ccccc3)C2)c1` [ZINC601953994], the negative logarithm of the Ki (pKi) was 6.01 at human D4 (D4.4 variant) [1], less than 5.00 in test [2] and less than 5.00 at human D3.
Take `CC(C)N1C[C@H](C)[C@H](NC(=O)N2Cc3ccccc3[C@@H]2C)C1` [ZINC621433143]: the negative-log Ki (pKi) was 6.17 on human D4 (D4.4 variant) [1], less than 5.00 in test [2] and less than 5.00 on human D3. For the same molecule, the negative-log EC50 (pEC50) is 6.46 on human D4 (D4.4 variant) [3], 5.50 on human D4 [4], 5.90 at human D4 [5] and 6.05 on cloned human D4. For the same molecule, in the test on D4 dopamine receptor, the β-arrestin bias was 7.
In the case of `O=C(CN1C[C@@H](O)C[C@@H]1C1CC1)Nc1ccc(Br)cc1` [ZINC640028109], the pKi at human D4 (D4.4 variant) [1] was 6.09; in test [2] it was less than 5.00; on human D3, less than 5.00.
For the molecule `C[C@H](CNC(=O)c1coc2ccc(Cl)cc12)N1CCCC1` [ZINC651262870], the negative logarithm of the Ki (pKi) on human D4 (D4.4 variant) [1] was 6.36; in test [2], less than 5.00; on human D3, less than 5.00. The negative-log EC50 (pEC50) on human D4 (D4.4 variant) [3] is 4.51.
